Activity calls are given as the source filed them. No cut-off for these calls is given here.
Columns and labels:
[1] = organism: Mus musculus; experiment: Tested for inhibitory activity against B lymphocyte proliferation induced by LPS at 10e-7 M; suppressed the proliferation; format: functional
[2] = organism: Mus musculus; experiment: Tested for inhibitory activity against T lymphocyte proliferation induced by Con A at 10e-7 M; showed potent suppressive effect; format: functional
[3] = organism: Mus musculus; experiment: Tested for inhibitory activity against T lymphocyte proliferation induced by PHA at 10e-7 M; showed potent suppressive effect; format: functional
[4] = organism: Mus musculus; experiment: Tested for inhibitory activity against B lymphocyte proliferation induced by LPS at 10e-5 M; significantly potentiated the proliferation; format: functional
[5] = organism: Mus musculus; experiment: Tested for inhibitory activity against T lymphocyte proliferation induced by Con A at 10e-5 M; slightly suppressed the proliferation; format: functional
[6] = organism: Mus musculus; experiment: Tested for inhibitory activity against T lymphocyte proliferation induced by PHA; showed no suppressive effect; format: functional
[7] = organism: Mus musculus; experiment: Tested for inhibitory activity against B lymphocyte proliferation induced by LPS at 10e-5 M; significantly suppressed the proliferation; format: functional
[8] = system: Mus musculus; experiment: Tested for inhibitory activity against contact ear dermatitis in mice induced by dinitrofluorobenzene by consecutive oral administration in the primary sensitizing phase; showed inhibition; format: functional, organism-based
[9] = system: Rattus norvegicus; experiment: Tested for […] inhibitory activity against type 1 allergic reactions after oral administration; showed inhibition; format: functional, organism-based
[10] = system: Rattus norvegicus; experiment: Tested for in vivo inhibitory activity against asthmatic bronchoconstriction in rats induced by antigen-antibody reaction; showed inhibition; format: functional, organism-based
[11] = system: Rattus norvegicus; experiment: Tested for in vivo inhibitory activity against passive cutaneous anaphylaxis (PCA) reaction in rats; showed inhibition; format: functional, organism-based
[12] = organism: Mus musculus; experiment: Tested for inhibitory activity against T lymphocyte proliferation induced by Con A at 10e-6 to 10e-5 M; significantly suppressed the proliferation; format: functional
[13] = system: Mus musculus; experiment: Tested for inhibitory activity against hind paw edema sensitized with sheep red blood cells (SRBC) in both sensitizing and inflammatory phases after oral administration; showed reduction

Row | Compound | Activity [4] | Activity [5] | Activity [6] | further results
1 | C[C@]12CCC(=O)C=C1CCC1[C@@H]2[C@@H](O)C[C@@]2(C)[C@H]1CC[C@]2(O)C(=O)CO (single isomer, unassigned) | – | – | – | Activity [1]: Active; Activity [2]: Active; Activity [3]: Active
2 | COc1ccc([C@H]2Cc3cccc(O)c3C(=O)O2)cc1O | significantly potentiated the proliferation | significantly potentiated the proliferation | – | –
3 | O=C1OC(c2ccc(O)c(O)c2)Cc2cccc(O)c21 (stereo not drawn) | no suppressive effect | no suppressive effect | no suppressive effect | –
4 | O=C1OC(c2ccc(O)cc2)Cc2cccc(O)c21 (stereo not drawn) | no suppressive effect | – | no suppressive effect | –
5 | O=C(O)c1c(O)cccc1/C=C/c1ccc(O)c(O)c1 | no suppressive effect | – | no suppressive effect | –
6 | COc1ccc([C@H]2Cc3cc(O)cc(O)c3C(=O)O2)cc1O | significantly potentiated the proliferation | significantly potentiated the proliferation | – | –
7 | O=C1OC(c2ccc(O)cc2)Cc2cc(O)cc(O)c21 (stereo not drawn) | no suppressive effect | no suppressive effect | no suppressive effect | –
8 | O=c1oc(-c2ccc(O)c(O)c2)cc2cc(O)cc(O)c12 | no suppressive effect | – | no suppressive effect | –
9 | O=c1oc(-c2ccc(O)cc2)cc2cccc(O)c12 | no suppressive effect | – | no suppressive effect | –
10 | O=c1oc(-c2ccc(O)c(O)c2)cc2cccc(O)c12 | – | – | – | Activity [7]: inhibition; Activity [8]: inhibition; Activity [9]: inhibition; Activity [10]: inhibition; Activity [11]: inhibition; Activity [12]: inhibition; Activity [13]: inhibition
11 | O=C1OC(c2ccc(O)c(O)c2)Cc2cc(O)cc(O)c21 (stereo not drawn) | no suppressive effect | no suppressive effect | no suppressive effect | –
12 | O=C1O/C(=C\c2ccc(O)c(O)c2)c2cccc(O)c21 | no suppressive effect | – | no suppressive effect | –
